The values below come from US10358436B2, “Kinase inhibitors and method of treating cancer” (University Health Network, priority 2010, dated 2019).

Counter-ions that a name gives are not always drawn.

As usually defined, the inhibition is the share of the control response that was lost under treatment. High values mean strong suppression, low ones little suppression.

In the test the target is Aurora A (Homo sapiens (Human), UniProt O14965). The experiment in a line: Aurora A inhibition assay (Z-Lyte). The class given is biochemical.
Chain of Aurora A (O14965 whole entry): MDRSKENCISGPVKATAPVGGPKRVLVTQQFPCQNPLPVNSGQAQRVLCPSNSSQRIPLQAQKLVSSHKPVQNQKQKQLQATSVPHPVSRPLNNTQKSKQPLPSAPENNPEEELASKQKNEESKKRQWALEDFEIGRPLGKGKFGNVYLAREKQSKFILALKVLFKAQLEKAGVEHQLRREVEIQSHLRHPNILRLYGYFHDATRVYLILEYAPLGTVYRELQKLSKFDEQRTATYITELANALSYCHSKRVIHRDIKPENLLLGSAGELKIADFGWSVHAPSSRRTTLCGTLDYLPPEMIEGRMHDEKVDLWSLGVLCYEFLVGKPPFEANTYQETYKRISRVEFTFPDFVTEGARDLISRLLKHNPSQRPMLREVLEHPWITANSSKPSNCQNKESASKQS
`COc1ccc2c(c1)[C@]1(C[C@H]1c1ccc3c(-c4ccc(CCN5CCOCC5)cc4)n[nH]c3c1)C(=O)N2` (relative stereo) [Example A159, (1R*,2S*)-5′-methoxy-2-(3-(4-(2-morpholinoethyl)phenyl)-1H-indazol-6-yl)spiro[cyclopropane-1,3′-indolin]-2′-one 2,2,2-trifluoroacetate] showed an inhibition at 1 µM of less than 50%.
The molecule `COc1ccc2c(c1)[C@]1(C[C@H]1c1ccc3c(/C=C/c4csc(CN(C)C)c4)n[nH]c3c1)C(=O)N2` (relative stereo) [Example A181, (1R*,2S*)-2-(3-4E)-2-(5-((dimethylamino)methyl)thiophen-3-yl)vinyl)-1H-indazol-6-yl)-5′-methoxyspiro[cyclopropane-1,3′-indolin]-2′-one 2,2,2-trifluoroacetate] showed an inhibition at 1 µM of more than 50%.
As for `O=C1Nc2ncc(Br)cc2[C@]12C[C@H]2c1ccc2c(/C=C/c3cccnc3)n[nH]c2c1` (relative stereo) [Example A27, (1R*,2S*)-5′-bromo-2-(3-((E)-2-(pyridin-3-yl)vinyl)-1H-indazol-6-yl)spiro[cyclopropane-1,3′-pyrrolo[2,3-b]pyridin]-2′(1′H)-one], the figure is less than 50%.
In the case of `CCN(CC)Cc1c(F)cc(/C=C/c2n[nH]c3cc([C@@H]4C[C@@]45C(=O)Nc4ccc(OC)cc45)ccc23)cc1F` [Example A146, (1R,2S)-(E)-2-(3-(4-((diethylamino)methyl)-3,5-difluorostyryl)-1H-indazol-6-yl)-5′-methoxyspiro[cyclopropane-1,3′-indolin]-2′-one 2,2,2-trifluoroacetate] it was less than 50%; in that of `CN1C(=O)[C@@]2(C[C@H]2c2ccc3c(/C=C/c4ccc(CN5CCCC5)cc4)n[nH]c3c2)c2ccccc21` [Example A115, (1R,2S)-(E)-1′-methyl-2-(3-(4-(pyrrolidin-1-ylmethyl)styryl)-1H-indazol-6-yl)spiro[cyclopropane-1,3′-indolin]-2′-one 2,2,2-trifluoroacetate], less than 50%; in that of `CN(C)Cc1ccc(/C=C/c2n[nH]c3cc([C@@H]4C[C@@]45C(=O)N(CC(N)=O)c4ccccc45)ccc23)cc1` (relative stereo) [Example A160, 2-((1R*,2S*)-(E)-2-(3-(4-((dimethylamino)methyl)styryl)-1H-indazol-6-yl)-2′-oxospiro[cyclopropane-1,3′-indoline]-1′-yl)acetamide 2,2,2-trifluoroacetate], more than 50%.
As for `COc1ccc2c(c1)[C@]1(C[C@H]1c1ccc3c(/C=C/c4ccc(CN5CCOCC5)cc4)n[nH]c3c1)C(=O)N2` (relative stereo) [Example A41, (1R*,2S*)-(E)-5′-methoxy-2-(3-(4-(morpholinomethyl)styryl)-1H-indazol-6-yl)spiro[cyclopropane-1,3′-indolin]-2′-one 2,2,2-trifluoroacetate], the figure is more than 50%; as for `COc1ccc2c(c1)[C@]1(C[C@H]1c1ccc3c(/C=C/c4cccnc4)n[nH]c3c1)C(=O)N2` [Example A197, (1R,2S)-5′-methoxy-2-(3-((E)-2-(pyridin-3-yl)vinyl)-1H-indazol-6-yl)spiro[cyclopropane-1,3′-indolin]-2′-one], more than 50%.
On to `COCCN1C(=O)[C@@]2(C[C@H]2c2ccc3c(/C=C/c4ccc(CN(C)C)cc4)n[nH]c3c2)c2ccccc21` [Example A131, (1R,2S)-(E)-2-(3-(4-((dimethylamino)methyl)styryl)-1H-indazol-6-yl)-1′-(2-methoxyethyl)spiro[cyclopropane-1,3′-indolin]-2′-one 2,2,2-trifluoroacetate], for which the inhibition at 1 µM is more than 50%.
As for `CN(C)Cc1cccc(/C=C/c2n[nH]c3cc([C@@H]4C[C@@]45C(=O)Nc4ccccc45)ccc23)c1` (relative stereo) [Example A162, (1R*,2S*)-(E)-2-(3-(3-((dimethylamino)methyl)styryl)-1H-indazol-6-yl)spiro[cyclopropane-1,3′-indolin]-2′-one 2,2,2-trifluoroacetate], the figure is more than 50%; as for `COc1ccc2c(c1)[C@]1(C[C@H]1c1ccc3c(/C=C/c4ccc(CN5CCCCC5)cc4)n[nH]c3c1)C(=O)N2` [Example A59, (1R,2S)-(E)-5′-methoxy-2-(3-(4-(piperidin-1-ylmethyl)styryl)-1H-indazol-6-yl)spiro[cyclopropane-1,3′-indolin]-2′-one 2,2,2-trifluoroacetate salt], more than 50%; as for `CCN(CC)Cc1ccc(/C=C/c2n[nH]c3cc([C@@H]4C[C@@]45C(=O)Nc4ccc(OC)cc45)ccc23)cc1` [Example A206, (1R,2S)-(E)-2-(3-(4-((diethylamino)methyl)styryl)-1H-indazol-6-yl)-5′-methoxy spiro[cyclopropane-1,3′-indolin]-2′-one 2,2,2-trifluoroacetate], more than 50%.
In the case of `COc1ccc2c(c1)[C@]1(C[C@H]1c1ccc3c(/C=C/c4ccc(CN5CCOCC5)s4)n[nH]c3c1)C(=O)N2` [Example A105, (1R,2S)-5′-methoxy-2-(3-((E)-2-(5-(morpholinomethyl)thiophen-2-yl)vinyl)-1H-indazol-6-yl)spiro[cyclopropane-L3′-indolin]-2′-one hydrochloride] it was more than 50%; in that of `CCN1CCN(c2ccc(/C=C/c3n[nH]c4cc([C@@H]5C[C@@]56C(=O)Nc5ccc(OC)cc56)ccc34)cc2)CC1` (relative stereo) [Example A188, (1R*,2S*)-(E)-2-(3-(4-(4-ethylpiperazin-1-yl)styryl)-1H-indazol-6-yl)-5′-methoxyspiro[cyclopropane-1,3′-indolin]-2′-one 2,2,2-trifluoroacetate], more than 50%.
In the case of `COc1ccc2c(c1)[C@]1(C[C@H]1c1ccc3c(-c4ccc5nccn5c4)n[nH]c3c1)C(=O)N2` [Example A107, (1R,2S)-2-(3-(imidazo[1,2-a]pyridin-6-yl)-1H-indazol-6-yl)-5′-methoxyspiro[cyclopropane-1,3′-indolin]-2′-one 2,2,2-trifluoroacetate] it was less than 50%; in that of `COc1ccc2c(c1)[C@]1(C[C@H]1c1ccc3c(-c4ccc(N5CCC(N(C)C)CC5)cc4)n[nH]c3c1)C(=O)N2` [Example A120, (1R,2S)-2-(3-(4-(4-(dimethylamino)piperidin-1-yl)phenyl)-1H-indazol-6-yl)-5′-methoxyspiro[cyclopropane-1,3′-indolin]-2′-one 2,2,2-trifluoroacetate], less than 50%; in that of `COc1ccc2c(c1)[C@]1(C[C@H]1c1ccc3c(-c4ccc(N5CCN(CCO)CC5)cc4)n[nH]c3c1)C(=O)N2` [Example A191, (1R,2S)-2-(3-(4-(4-(2-hydroxyethyl)piperazin-1-yl)phenyl)-1H-indazol-6-yl)-5′-methoxyspiro[cyclopropane-1,3′-indolin]-2′-one 2,2,2-trifluoroacetate], less than 50%.
The molecule `COc1ccc2c(c1)[C@]1(C[C@H]1c1ccc3c(/C=C/c4ccc5c(c4)CN(C)CC5)n[nH]c3c1)C(=O)N2` [Example A64, (1R,2S)-5′-methoxy-2-(3-((E)-2-(2-methyl-1,2,3,4-tetrahydroisoquinolin-7-yl)vinyl)-1H-indazol-6-yl)spiro[cyclopropane-1,3′-indolin]-2′-one 2,2,2-trifluoroacetate salt] gave an inhibition at 1 µM of more than 50%.
In the case of `COc1ccc2c(c1)[C@]1(C[C@H]1c1ccc3c(-c4ccc(N5CCNCC5)cc4)n[nH]c3c1)C(=O)N2C` [Example A101, (1R,2S)-5′-methoxy-1′-methyl-2-(3-(4-(piperazin-1-yl)phenyl)-1H-indazol-6-yl)spiro[cyclopropane-1,3′-indolin]-2′-one 2,2,2-trifluoroacetate] it was less than 50%; in that of `COc1ccc2c(c1)[C@]1(C[C@H]1c1ccc3c(/C=C/c4ccc(N5CCN(C(C)C)CC5)cc4)n[nH]c3c1)C(=O)N2` (relative stereo) [Example A189, (1R*,2S*)-(E)-2-(3-(4-(4-isopropylpiperazin-1-yl)styryl)-1H-indazol-6-yl)-5′-methoxyspiro[cyclopropane-1,3′-indolin]-2′-one 2,2,2-trifluoroacetate], more than 50%.
As for `COc1ccc2c(c1)[C@]1(C[C@H]1c1ccc3c(/C=C/c4cc(F)c(CN(C)C)c(F)c4)n[nH]c3c1)C(=O)N2` [Example A216, (1R,2S)-(E)-2-(3-(4-((dimethylamino)methyl)-3,5-difluorostyryl)-1H-indazol-6-yl)-5′-methoxyspiro[cyclopropane-1,3′-indolin]-2′-one 2,2,2-trifluoroacetate], the figure is more than 50%.
In the case of `O=C1Nc2ccc(F)cc2[C@]12C[C@H]2c1ccc2c(/C=C/c3ccc(N4CCOCC4)nc3)n[nH]c2c1` (relative stereo) [Example A207, (1R*,2S*)-5′-fluoro-2-(3-((E)-2-(6-morpholinopyridin-3-yl)vinyl)-1H-indazol-6-yl)spiro[cyclopropane-1,3′-indolin]-2′-one 2,2,2-trifluoroacetate] it was more than 50%.
For `COc1ccc2c(c1)[C@]1(C[C@H]1c1ccc3c(-c4ccc(CO)cc4)n[nH]c3c1)C(=O)N2` (relative stereo) [Example A45, (1R*,2S*)-2-(3-(4-(hydroxymethyl)phenyl)-1H-indazol-6-yl)-5′-methoxyspiro[cyclopropane-1,3′-indolin]-2′-one 2,2,2-trifluoroacetate], the inhibition at 1 µM is less than 50%.
In the case of `COc1ccc2c(c1)[C@]1(C[C@H]1c1ccc3c(-c4ccc(N5CCC(N6CCOCC6)CC5)cc4)n[nH]c3c1)C(=O)N2` [Example A121, (1R,2S)-5′-methoxy-2-(3-(4-(4-morpholinopiperidin-1-yl)phenyl)-1H-indazol-6-yl)spiro[cyclopropane-1,3′-indolin]-2′-one 2,2,2-trifluoroacetate] it was less than 50%.
In the case of `COc1ccc2c(c1)[C@]1(C[C@H]1c1ccc3c(/C=C/c4ccncc4)n[nH]c3c1)C(=O)N2` [Example A111, (1R,2S)-5′-methoxy-2-(3-((E)-2-(pyridin-4-yl)vinyl)-1H-indazol-6-yl)spiro[cyclopropane-1,3′-indolin]-2′-one 2,2,2-trifluoroacetate] it was more than 50%.
